# Data: US20060165631A1, “Use of oligoglucosamines in cosmetic or dermatological preparations” (priority 2003, published 2006)
# Tested on: human keratinocytes
# Assay: Protection of cells against UV-B rays (cell DNA, LDH and PGE2 release)
# Assay type: cell-based
# Details: 0.03 % w/v, UVB 50 mJ/cm^2, control with UVB = 100%, without UVB = 0%
# Procedure: The influence of UVB rays on keratinocytes was determined in vitro through the release of cytoplasmatic enzymes, such as LDH (lactate dehydrogenase) for example, which runs parallel to the cell damage and the formation of PGE2. To carry out the test, a keratinocyte culture was mixed with foetal calf serum and inoculated with the test substances after storage at 37° C. in an atmosphere containing 5% CO2. After incubation for 36 h at 37° C. and a CO2 level of 5% by vol., the nutrient medium was replaced by an electrolyte solution and the fibroblasts were damaged with a particular dose of UVB (50 mJ/cm^2; lamp: Duke GL40E). The quantity of keratinocytes was determined after trypsination via a cell counter while the LDH concentration was enzymatically determined.
structure (smiles),measurement,value
CC(=O)Oc1ccccc1C(=O)O [acetylsalicylic acid],LDH released,0%
same,PGE2 released,0%
